Results taken from patent publication US20170190671A1, “BIS(ARYL)CATECHOL DERIVATIVES AS HERBICIDES” (E I DU PONT DE NEMOURS AND COMPANY, priority 2014, published 2017).

How the values were obtained:
Format in all cases: in vivo
[1] = test system: galium (catchweed bedstraw, Galium aparine); test: Test C postemergence; settings: Galium, post-emergence, 336 h, Postemergence, scale 0 to 100, read-out: Plant response rating, Galium
[2] = test system: lambsquarters (Chenopodium album); test: Test C postemergence; settings: Chenopodium album, post-emergence, 336 h, Postemergence, scale 0 to 100, read-out: Plant response rating, Lambsquarters
corn (Zea mays) [3] = test: Test C postemergence; settings: Zea mays, post-emergence, 336 h, Postemergence, scale 0 to 100
[4] = test system: ragweed (common ragweed, Ambrosia elatior); test: Test C postemergence; settings: Ambrosia artemisiifolia, post-emergence, 336 h, Postemergence, scale 0 to 100, read-out: Plant response rating, Ragweed
soybean (Glycine max) = test: Test C postemergence; settings: Glycine max, post-emergence, Postemergence, scale 0 to 100, read-out: Plant response rating, Soybean
[5] = test system: waterhemp (common waterhemp, Amaranthus rudis); test: Test C postemergence; settings: Amaranthus tuberculatus, post-emergence, Postemergence, scale 0 to 100, read-out: Plant response rating, Waterhemp
[6] = test system: johnsongrass (Sorghum halepense); test: Test C preemergence; settings: Sorghum halepense, pre-emergence, 336 h, scale 0 to 100, read-out: Plant response rating, Johnsongrass
Summary of the method: (§1)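 Steps: plant seeds in loam-sand soil and treat preemergence, or grow plants in peat-based medium to 2-18 cm and spray; compound formulated in non-phytotoxic solvent/surfactant; hold in greenhouse 13-15 days; score visually versus controls from 0 (no effect) to 100 (complete control).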

[7] = test system: morningglory (Ipomoea coccinea); test: Test C preemergence; settings: Ipomoea, pre-emergence, 336 h, scale 0 to 100, read-out: Plant response rating, Morningglory
Summary of the method: as §1

[8] = test system: lambsquarters (Chenopodium album); test: Test C preemergence; settings: Chenopodium album, pre-emergence, 336 h, scale 0 to 100, read-out: Plant response rating, Lambsquarters
Summary of the method: as §1

[9] = test system: barnyardgrass (Echinochloa crus-galli); test: Test C preemergence; settings: Echinochloa crus-galli, pre-emergence, read-out: Plant response rating, Barnyardgrass
Summary of the method: as §1

[10] = test system: yellow nutsedge (Cyperus esculentus); test: Test C preemergence; settings: Cyperus, pre-emergence, 336 h, scale 0 to 100, read-out: Plant response rating, Nutsedge, Yellow
Summary of the method: as §1

corn (Zea mays) [11] = test: Test C preemergence; settings: Zea mays, pre-emergence, 336 h; 31 g ai/ha, preemergence; scale 0 to 100
Summary of the method: as §1

Fc1cccc(Oc2ncc(C(F)(F)F)cn2)c1Oc1ncc(Cl)cn1 [Compound 42, 5-chloro-2-[2-fluoro-6-[[5-(trifluoromethyl)-2-pyrimidinyl]oxy]phenoxy]pyrimidine] showed a pest or weed control at 16 g/ha ([1]; 16 g ai/ha) of 75%, a pest or weed control at 31 g/ha ([1]; 31 g ai/ha) of 98% and a pest or weed control at 62 g/ha ([1]; 62 g ai/ha) of 100%. For the same compound, the pest or weed control at 125 g/ha ([1]; 125 g ai/ha) was 100%, the pest or weed control at 16 g/ha ([2]; 16 g ai/ha) was 80% and the pest or weed control at 31 g/ha ([2]; 31 g ai/ha) was 80%. The pest or weed control at 62 g/ha ([2]; 62 g ai/ha) was 90%, the pest or weed control at 125 g/ha ([2]; 125 g ai/ha) was 95% and the Corn plant response rating (crop injury, 0 = no effect, 100 = complete kill) at 16 g/ha (corn (Zea mays) [3]; 16 g ai/ha) was 5%. It also gave a Corn plant response rating (crop injury, 0 = no effect, 100 = complete kill) at 31 g/ha (corn (Zea mays) [3]; 31 g ai/ha) of 5%, a Corn plant response rating (crop injury, 0 = no effect, 100 = complete kill) at 62 g/ha (corn (Zea mays) [3]; 62 g ai/ha) of 10% and a Corn plant response rating (crop injury, 0 = no effect, 100 = complete kill) at 125 g/ha (corn (Zea mays) [3]; 125 g ai/ha) of 25%. The pest or weed control at 31 g/ha ([4]; 31 g ai/ha) was 65%, the pest or weed control at 62 g/ha ([4]; 62 g ai/ha) was 70% and the pest or weed control at 125 g/ha ([4]; 125 g ai/ha) was 65%. For the same compound, the plant injury at 31 g/ha (soybean (Glycine max); 31 g ai/ha) was 55%, the plant injury at 62 g/ha (soybean (Glycine max); 62 g ai/ha) was 65% and the plant injury at 125 g/ha (soybean (Glycine max); 125 g ai/ha) was 85%. It also gave a pest or weed control at 31 g/ha ([5]; 31 g ai/ha) of 90%, a pest or weed control at 62 g/ha ([5]; 62 g ai/ha) of 95% and a pest or weed control at 125 g/ha ([5]; 125 g ai/ha) of 95%. For the same compound, the pest or weed control at 31 g/ha ([6]; 31 g ai/ha, preemergence) was 70%, the pest or weed control at 62 g/ha ([6]; 62 g ai/ha, preemergence) was 100% and the pest or weed control at 125 g/ha ([6]; 125 g ai/ha, preemergence) was 100%. It also gave a pest or weed control at 16 g/ha ([6]; Preemergence, 16 g ai/ha) of 30%, a pest or weed control at 31 g/ha ([7]; 31 g ai/ha, preemergence) of 85% and a pest or weed control at 62 g/ha ([7]; 62 g ai/ha, preemergence) of 100%. The pest or weed control at 125 g/ha ([7]; 125 g ai/ha, preemergence) was 100%, the pest or weed control at 16 g/ha ([7]; Preemergence, 16 g ai/ha) was 60% and the pest or weed control at 31 g/ha ([8]; 31 g ai/ha, preemergence) was 100%. The pest or weed control at 62 g/ha ([8]; 62 g ai/ha, preemergence) was 100%, the pest or weed control at 125 g/ha ([8]; 125 g ai/ha, preemergence) was 100% and the pest or weed control at 16 g/ha ([8]; Preemergence, 16 g ai/ha) was 100%. It also gave a pest or weed control at 31 g/ha ([9]; 31 g ai/ha, preemergence, scale 0 to 100) of 90%, a pest or weed control at 62 g/ha ([9]; 62 g ai/ha, preemergence, scale 0 to 100) of 100% and a pest or weed control at 125 g/ha ([9]; 125 g ai/ha, preemergence, scale 0 to 100) of 100%. The pest or weed control at 16 g/ha ([9]; Preemergence, 16 g ai/ha, scale 0 to 100 (0 no effect, 100 complete control)) was 50%, the pest or weed control at 31 g/ha ([10]; 31 g ai/ha, preemergence) was 10% and the pest or weed control at 62 g/ha ([10]; 62 g ai/ha, preemergence) was 50%. For the same compound, the pest or weed control at 125 g/ha ([10]; 125 g ai/ha, preemergence) was 75%, the pest or weed control at 16 g/ha ([10]; Preemergence, 16 g ai/ha) was 0% and the Corn plant response rating (crop injury, 0 = no effect, 100 = complete kill) at 31 g/ha (corn (Zea mays) [11]) was 5%.
